Test results published in PubChem BioAssay (NCI).
“And” between values parts separate entries of the source, which are not always exact repeats. Identical values can stand only once.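 Interpolation was linear, between the two tested concentrations surrounding the appropriate level; five concentrations were tested over 48 hours in 96-well plates. GI50: concentration for 50% inhibition of growth. TGI: total growth inhibition.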

Legend:
Assay in all cases: NCI-60 cell line screen, 48 h
A498 renal = tested on: A498 renal
A549 NSCLC = tested on: A549 NSCLC
COLO 205 colon = tested on: COLO 205 colon
HCC-2998 colon = tested on: HCC-2998 colon
HS 578T breast = tested on: HS 578T breast
MDA-MB-231 breast = tested on: MDA-MB-231 breast
SF-295 CNS = tested on: SF-295 CNS
SK-MEL-2 melanoma = tested on: SK-MEL-2 melanoma
SK-MEL-28 melanoma = tested on: SK-MEL-28 melanoma
SNB-75 CNS = tested on: SNB-75 CNS

Compound	GI50 (A498 renal)	TGI (A498 renal)	GI50 (A549 NSCLC)	TGI (A549 NSCLC)	GI50 (COLO 205 colon)	TGI (COLO 205 colon)	GI50 (HCC-2998 colon)	TGI (HCC-2998 colon)	GI50 (HS 578T breast)	TGI (HS 578T breast)	GI50 (MDA-MB-231 breast)	TGI (MDA-MB-231 breast) [µM]	GI50 (SF-295 CNS)	TGI (SF-295 CNS)	GI50 (SK-MEL-2 melanoma)	TGI (SK-MEL-2 melanoma) [µM]	GI50 (SK-MEL-28 melanoma)	TGI (SK-MEL-28 melanoma)	GI50 (SNB-75 CNS)	TGI (SNB-75 CNS)
COc1ccc(-c2cc(-c3ccc(O)cc3)nc3nc(=S)[nH]c(N)c23)cc1	20500 nM	43.4 µM	17400 nM	54.6 µM	17000 nM	50.1 µM	16200 nM	31.9 µM	20600 nM	48.4 µM	16100 nM	57.8	20000 nM	61.6 µM	18400 nM	41.2	66800 nM	> 100 µM	26200 nM	> 100 µM
O=C(CSc1nc2ccc([N+](=O)[O-])cc2[nH]1)Nc1cccc(Cl)c1	1430 nM	4.16 µM	2720 nM	15.9 µM	1920 nM	4.27 µM	3170 nM	13.6 µM	2950 nM	19.4 µM	2120 nM	6.55	2070 nM	6.8 µM	2000 nM	5.82	2680 nM	13.1 µM	1850 nM	7.81 µM
O=C(/C=C/c1ccccn1)c1ccccc1O	2210 nM	7.14 µM	5370 nM	20.4 µM	1690 nM	3.3 µM	1700 nM	3.07 µM	2360 nM	7.27 µM	2800 nM	7.5	2230 nM	4.67 µM	2310 nM	4.88	2090 nM	4.22 µM	1790 nM	4.24 µM
O=C(O)CN(CC(=O)O)Cc1cc2c(cc1O)Oc1cc(O)c(CN(CC(=O)O)CC(=O)O)cc1C21OC(=O)c2ccccc21	–	> 100 µM	–	> 100 µM	–	> 100 µM	–	> 100 µM	–	> 100 µM	–	> 100	–	> 100 µM	–	> 100	–	> 100 µM	–	> 100 µM
COc1ccccc1CNCCCN1C(=O)c2ccc3c4c(ccc(c24)C1=O)C(=O)N(CCCNCCCCNCCCCN)C3=O	472 nM	4.51 µM	2300 nM	7 µM	351 nM	1.31 µM	1800 nM	6.39 µM	2830 nM	14.4 µM	944 nM	8.17	2630 nM	11 µM	1910 nM	4.87	2100 nM	5.9 µM	1300 nM	3.68 µM
C=C1C(=O)O[C@H]2[C@H]1CC/C(COC(=O)/C=C\C(=O)NCc1ccc(Cn3c(=O)sn(-c4ccc(OC)cc4)c3=O)cc1)=C\CC[C@@]1(C)O[C@@H]21	799 nM	1.57 µM	938 nM	2.88 µM	633 nM	2.02 µM	881 nM	1.67 µM	913 nM	2.51 µM	701 nM	1.7	3840 nM	10.1 µM	882 nM	1.94	825 nM	1.55 µM	407 nM	1.23 µM
CN(C)c1ccc(/C=C(\C#N)c2cc3ccccc3n2C)cc1	41.2 nM	0.604 µM	226 nM	> 100 µM	258 nM	1.72 µM	293 nM	> 43.8 µM	361 nM	> 100 µM	509 nM	> 100	78.7 nM	–	328 nM	> 100	1070 nM	> 100 µM	56.2 nM	1.75 µM
CC(C)c1ccc2c(N=Nc3ccc(S(N)(=O)=O)cc3)c(O)[nH]c2c1	> 21500 nM	> 25 µM	> 14800 nM	> 25 µM	> 25000 nM	> 25 µM	> 21100 nM	> 25 µM	8070 nM	> 25 µM	9170 nM	> 25	11200 nM	> 25 µM	> 13100 nM	> 21.6	> 25000 nM	> 25 µM	4720 nM	10.3 µM
COC(=O)C(/C(=N/N)C(=O)Nc1ccc(C)c(C)c1)c1nc2ccc(Cl)cc2[nH]c1=O (configuration not stated)	–	> 100 µM	–	> 100 µM	–	–	–	> 100 µM	–	> 100 µM	–	> 100	–	> 100 µM	–	> 100	–	> 100 µM	–	> 100 µM
COc1ccc(Nc2c3c4c(cccc4[nH]c2=O)C(=O)c2ccccc2-3)cc1	< 19.2 nM	–	< 22.1 nM	> 32.1 µM	19.1 nM	0.0446 µM	22.1 nM	0.0482 µM	23.8 nM	> 45.9 µM	45.1 nM	–	< 17.4 nM	< 0.0275 µM	48 nM	> 100	11000 nM	> 100 µM	27.8 nM	> 72.1 µM
O=C(CCCCCCC(=O)N/N=C/c1ccc(N(c2ccccc2)c2ccccc2)cc1)NO	357 nM	1.62 µM	2990 nM	9.51 µM	2020 nM	4.63 µM	2870 nM	11.2 µM	6140 nM	31.2 µM	3370 nM	12.2	1770 nM	4.47 µM	2710 nM	7.81	3060 nM	11.6 µM	2040 nM	14.2 µM
CCCCCCCCCCCC1=NC(C)(C)CN1CCO	15600 nM	31.8 µM	6930 nM	21.9 µM	1850 nM	3.45 µM	1870 nM	3.63 µM	7510 nM	25.6 µM	3780 nM	15.2	2980 nM	9.85 µM	8150 nM	22.4	2120 nM	4.35 µM	7930 nM	21.6 µM
CCOCCc1c(O)nc(SC)[nH]c1=O	> 100000 nM	> 100 µM	> 100000 nM	> 100 µM	> 100000 nM	> 100 µM	> 100000 nM	> 100 µM	> 100000 nM	> 100 µM	> 100000 nM	> 100	> 100000 nM	> 100 µM	> 100000 nM	> 100	> 100000 nM	> 100 µM	> 100000 nM	> 100 µM
O=C1Nc2cc(Cl)ccc2Oc2cc(Oc3ccccc3)ccc21	1690 nM	9.72 µM	4660 nM	33.8 µM	5300 nM	19.9 µM	8800 nM	> 100 µM	3310 nM	27.5 µM	5500 nM	51.4	3640 nM	18.5 µM	4990 nM	35.7	5940 nM	32.8 µM	1490 nM	20.1 µM
O=C(Nc1ncc(Cc2ccccc2)s1)c1ccc2c(c1)OCCO2	12.3 nM	0.0687 µM	61.6 nM	> 100 µM	35.4 nM	1.08 µM	72.9 nM	1.63 µM	35.3 nM	> 100 µM	66.9 nM	4.03	30.4 nM	1.49 µM	101 nM	> 100	82.3 nM	> 100 µM	27.7 nM	1.66 µM
CCOC(=O)c1c[nH]c2c(OCc3ccccc3)c3ccccc3c(O)c2c1=O	27300 nM	> 78.1 µM	9330 nM	> 56 µM	47000 nM	> 100 µM	37400 nM	> 100 µM	13500 nM	48 µM	15200 nM	60.8	2090 nM	15.5 µM	42500 nM	> 100	25800 nM	> 100 µM	11600 nM	> 54.4 µM
CS(=O)(=O)N1CCN(Cc2cc3nc(-c4cccc5[nH]ncc45)nc(N4CCOCC4)c3s2)CC1	61.8 nM and 58.1 nM	0.433 µM and 0.389 µM	477 nM and 430 nM	3.71 µM and > 5.34 µM	499 nM and 163 nM	> 100 µM	614 nM and 153 nM	> 100 µM	134 nM and 148 nM	1.44 µM and 1.11 µM	2620 nM and 504 nM	> 100	262 nM and 318 nM	3.11 µM and 3.62 µM	1270 nM and 325 nM	> 100	345 nM and 133 nM	–	91.8 nM and 30.1 nM	3.28 µM and 0.495 µM
C=C1C(=O)O[C@H]2[C@H]1CC/C(C=Nc1ccc(C(F)(F)F)cc1N)=C\CC[C@@]1(C)O[C@@H]21	17000 nM	30.8 µM	17200 nM	32.7 µM	4210 nM	16.3 µM	16000 nM	34.9 µM	11200 nM	40.4 µM	7050 nM	24.3	13100 nM	26.3 µM	11900 nM	26.5	5850 nM	20.2 µM	10900 nM	23.2 µM
NC(=O)c1nnn(Cc2cc(Cl)c(C(=O)c3ccc(Cl)cc3)c(Cl)c2)c1N	> 9090 nM	> 9.09 µM and 27.2 µM	> 9090 nM	> 9.09 µM and 37.1 µM	> 9090 nM	> 9.09 µM and 48 µM	6150 nM	> 9.09 µM and 17.9 µM	–	> 64.3 µM	–	> 52.8	–	> 9.09 µM and 34 µM	> 9090 nM	> 44	> 9090 nM	> 9.09 µM and 44.6 µM	> 9090 nM	> 9.09 µM and 48 µM
